The source of these data is patent US11236129B2, “IL-17A binding peptides and medical uses thereof” (Dompe' Farmaceutici S.P.A., priority 2018, dated 2022).

SMILES strings stand for the structures. Read-outs that look alike come from different tables or passages of the source. Residues, ends and D or L forms follow the SMILES beside them. Some results are limits rather than exact numbers.

As usually defined, the logP is the decadic logarithm of the partition coefficient of the neutral form, usually between octanol and water. By solubility is commonly meant the dissolved amount per volume that the medium holds. Low values mean little dissolved substance, high ones much dissolved substance.

Data set [1] concerns the target IL-17RA/IL17RC dimerization induced by IL-17A (Homo sapiens, UniProt Q16552). As to the kind of experiment: IL-17RA/IL17RC dimerization assay in response to IL-17A (PathHunter Cytokine Receptor Assay). The class given is cell-based. The following applies: IL-17A at EC80; read-out: IC50 in IL-17RA/IL7RC dimerization assay. The method, boiled down:
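Receptor dimerization was read as chemiluminescence from complemented β-galactosidase after IL-17A at EC80 concentration for 6–16 h at 37 °C. Peptides were added 60 min before agonist, at 37 °C or room temperature, with 1% vehicle. Percent inhibition used the EC80-stimulated and vehicle wells as references.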

A short description of data set [2]: Isoelectric point, log D and log P (SiriusT3). The following applies: for IP (isoelectric point): 25±1° C., 0.15 M KCl. Format: physicochemical. The procedure: The main physicochemical properties (Isoelectric point (IP), log D (7.4) and log P) of the peptides of Table 8 below were determined by using the SiriusT3 apparatus (Sirius Analytical Instruments Ltd., East Sussex, UK) equipped with an Ag/AgCl double junction reference pH electrode, a Sirius D-PAS spectrometer and a turbidity sensing device. […] An overhead stirrer was used and a temperature probe (Peltier controller) monitored the temperature during the course of the titration. The titration experiments were conducted in 0.15 M KCl Ionic Strength Adjusted solution (ISA water) under a nitrogen atmosphere at a temperature of 25±1° C. All tests were performed using standardized 0.5 M KOH and 0.5 M HCl as titration reagents, for the partition coefficient tests a saturated Octanol in ISA water (5% of ISA water) was used as partition solvent. The pKas were determined by potentiometric method by pH-metric titration. The powder (around 0.5 mg) was dissolved in 1.5 ml of ISA water and the titration was performed in triplicate in the pH range 2.0−12.0.

Data set [3] is classed as physicochemical. The following applies: pH 7.8. As to the method: Each lyophilized peptide was weighed in an amber vial. A calculated volume of phosphate buffered solution at pH 7.8 was added in order to directly obtain 10 mM Stock Solutions. The recovered suspensions were stirred for 30 minutes by orbital shaker incubator at 37° C. Subsequent dilutions were performed to obtain the more diluted stock solutions for the less soluble compounds.
In order to evaluate the stability and the solubility, all the stock solutions were stored at 25° C. The title was evaluated by UHPLC-MS analysis in comparison with the standard solutions, at 3 time points: T0, 3 days, 1 week.
The chromatographic profile was evaluated for the quantitative assay while the MS spectra were detected as support in the stability studies.
Each peptide was weighed and directly diluted at 100 μM with the phosphate buffer at pH 7.8. The solutions were stirred for 5 minutes by vortex and heated at 37° C. for 20 minutes. The obtained standard solution was stored at 25° C. in the dark under controlled temperature.
A portion of the stock solutions was collected in an amber vial and diluted to 100 μM by phosphate buffer at pH 7.8 (dilution factor, 1:100).
Reversed-phase UHPLC was performed operating at a flow rate of 0.3 ml/min with a Luna Omega Polar C18 column ([…] 1.6 μm, 2.1×100 mm). Solvent A was 0.5% Formic Acid in water and solvent B was 0.5% Formic Acid in acetonitrile. First, samples were loaded onto the column and washed isocratically at 10% B for 3 min. Then, a gradient of 10-95% B was run over 22 min, held at 95% for 2 min, and then decreased to 10% over 1 min and held, for the pressure stabilization, for 5 min. UV Absorption was monitored by DAD (220-400 nm). ESI-MS ion trap was used for the monitoring of TIC.

[4] abbreviates: octanol/ISA water, read-out: logP.
Setting [5] is: pH 7.4, pH 7.4, octanol/ISA water, read-out: Log D (7.4).

Sequence of IL-17RA/IL17RC dimerization induced by IL-17A (Q16552 24-155): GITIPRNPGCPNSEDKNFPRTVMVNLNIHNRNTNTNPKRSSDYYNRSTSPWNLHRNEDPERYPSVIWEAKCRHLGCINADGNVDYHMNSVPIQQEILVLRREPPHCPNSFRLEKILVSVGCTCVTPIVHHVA

Take `CC[C@H](C)[C@H](NC(C)=O)C(=O)N[C@@H](CCSC)C(=O)N[C@H](C(=O)N[C@H](C(=O)N[C@H](C(=O)N1CCC[C@H]1C(=O)N[C@@H](C)C(=O)N[C@@H](CC(=O)O)C(=O)N[C@@H](CC(C)C)C(=O)N[C@@H](Cc1c[nH]c2ccccc12)C(=O)N[C@@H](CC(=O)O)C(=O)N[C@@H](Cc1c[nH]c2ccccc12)C(=O)N[C@H](C(=O)N[C@@H](CC(N)=O)C(=O)N[C@@H](CCCCN)C(N)=O)[C@@H](C)CC)[C@@H](C)CC)[C@@H](C)O)C(C)C` [SEQ ID NO: 3] (Ac-IMVTIPADLWDWINK-NH2): the IC50 in data set [1] is < 400 nM. Moreover, the “IP (isoelectric point)” value in data set [2] was 3.90. Also, the lipophilicity (logP) in data set [2] (setting [4]) worked out at 1.33. The logD in data set [2] (setting [5]) was -1.87. Besides, the solubility in data set [3] is ≥ 0.01 mM.
On the same counts, the results for `CC[C@H](C)[C@H](NC(=O)[C@H](Cc1c[nH]c2ccccc12)NC(=O)[C@H](CC(=O)O)NC(=O)[C@H](Cc1c[nH]c2ccccc12)NC(=O)[C@H](CC(C)C)NC(=O)[C@H](CC(=O)O)NC(=O)[C@H](C)NC(=O)[C@@H]1CCCN1C(=O)[C@@H](NC(=O)[C@@H](NC(=O)[C@@H](NC(=O)[C@H](CCSC)NC(=O)[C@@H](NC(C)=O)C(C)C)C(C)C)[C@@H](C)O)[C@@H](C)CC)C(=O)N[C@@H](CC(N)=O)C(=O)N[C@@H](CCCCN)C(N)=O` [SEQ ID NO: 4] (Ac-VMVTIPADLWDWINK-NH2) are < 100 nM, 3.90, 1.88, -1.32 and ≥ 0.02 mM.
On the same counts, the results for `CC[C@H](C)[C@H](NC(C)=O)C(=O)N[C@@H](Cc1c[nH]cn1)C(=O)N[C@H](C(=O)N[C@H](C(=O)N[C@H](C(=O)N1CCC[C@H]1C(=O)N[C@@H](C)C(=O)N[C@@H](CCC(=O)O)C(=O)N[C@@H](CC(C)C)C(=O)N[C@@H](Cc1c[nH]c2ccccc12)C(=O)N[C@@H](CC(=O)O)C(=O)N[C@@H](Cc1c[nH]c2ccccc12)C(=O)N[C@H](C(=O)N[C@@H](CC(N)=O)C(=O)N[C@@H](CCCCN)C(N)=O)[C@@H](C)CC)[C@@H](C)CC)[C@@H](C)O)C(C)C` [SEQ ID NO: 5] (Ac-IHVTIPAELWDWINK-NH2) are < 100 nM, 5.19, -0.51, -1.26 and ≥ 1 mM.
Consider `CC[C@H](C)[C@H](NC(C)=O)C(=O)N[C@@H](Cc1c[nH]cn1)C(=O)N[C@H](C(=O)N[C@H](C(=O)N[C@H](C(=O)N1CCC[C@H]1C(=O)N[C@@H](C)C(=O)N[C@@H](CC(=O)O)C(=O)N[C@@H](CC(C)C)C(=O)N[C@@H](Cc1ccc(O)cc1)C(=O)N[C@@H](CC(=O)O)C(=O)N[C@@H](Cc1c[nH]c2ccccc12)C(=O)N[C@H](C(=O)N[C@@H](CC(N)=O)C(=O)N[C@@H](CCCCN)C(N)=O)[C@@H](C)CC)[C@@H](C)CC)[C@@H](C)O)C(C)C` [SEQ ID NO: 6] (Ac-IHVTIPADLYDWINK-NH2), for which the IC50 in data set [1] was < 400 nM. Further, in data set [2], the “IP (isoelectric point)” value turned out to be 5.14. In addition, in data set [2] (logP), the lipophilicity (logP) is -0.37. Further, in data set [2] (pH 7.4, Log D (7.4)), the logD was -3.65. In addition, the solubility in data set [3] was > 10 mM.
For `CC[C@H](C)[C@H](NC(C)=O)C(=O)N[C@@H](Cc1c[nH]cn1)C(=O)N[C@H](C(=O)N[C@H](C(=O)N[C@H](C(=O)N1CCC[C@H]1C(=O)N[C@@H](C)C(=O)N[C@@H](CC(=O)O)C(=O)N[C@@H](CC(C)C)C(=O)N[C@@H](Cc1c[nH]c2ccccc12)C(=O)N[C@@H](CC(=O)O)C(=O)N[C@@H](Cc1c[nH]c2ccccc12)C(=O)N[C@H](C(=O)N[C@@H](CC(N)=O)C(=O)N[C@@H](CCCCN)C(N)=O)C(C)C)[C@@H](C)CC)[C@@H](C)O)C(C)C` [SEQ ID NO: 8] (Ac-IHVTIPADLWDWVNK-NH2), in that order: < 200 nM, 5.14, -5.12, -4.06 and > 10 mM.
For `CC[C@H](C)[C@H](NC(C)=O)C(=O)N[C@@H](Cc1c[nH]cn1)C(=O)N[C@H](C(=O)N[C@H](C(=O)N[C@H](C(=O)N1CCC[C@H]1C(=O)N[C@@H](C)C(=O)N[C@@H](CC(=O)O)C(=O)N[C@@H](CC(C)C)C(=O)N[C@@H](Cc1c[nH]c2ccccc12)C(=O)N[C@@H](CC(=O)O)C(=O)N[C@@H](Cc1c[nH]c2ccccc12)C(=O)N[C@H](C(=O)N[C@@H](CCCNC(=N)N)C(=O)N[C@@H](CCCCN)C(N)=O)[C@@H](C)CC)[C@@H](C)CC)[C@@H](C)O)C(C)C` [SEQ ID NO: 9] (Ac-IHVTIPADLWDWIRK-NH2), in that order: < 300 nM, 8.28, -0.53, -1.08 and > 10 mM.
Take `CC[C@H](C)[C@H](NC(C)=O)C(=O)N[C@@H](Cc1c[nH]cn1)C(=O)N[C@H](C(=O)N[C@H](C(=O)N[C@H](C(=O)N1CCC[C@H]1C(=O)N[C@@H](C)C(=O)N[C@@H](CC(=O)O)C(=O)N[C@@H](CC(C)C)C(=O)N[C@@H](Cc1c[nH]c2ccccc12)C(=O)N[C@@H](CC(=O)O)C(=O)N[C@@H](Cc1c[nH]c2ccccc12)C(=O)N[C@H](C(=O)N[C@@H](CC(N)=O)C(=O)N[C@@H](CCCNC(=N)N)C(N)=O)[C@@H](C)CC)[C@@H](C)CC)[C@@H](C)O)C(C)C` [SEQ ID NO: 10] (Ac-IHVTIPADLWDWINR-NH2): the IC50 in data set [1] was < 400 nM. The “IP (isoelectric point)” value in data set [2] came to 5.14. The lipophilicity (logP) in data set [2] (logP) was found to be 0.09. Besides, in data set [2] (pH 7.4, Log D (7.4)), the logD was -3.66. Moreover, the solubility in data set [3] was > 10 mM.
On the same counts, the results for `CC[C@H](C)[C@H](NC(C)=O)C(=O)N[C@@H](Cc1c[nH]cn1)C(=O)N[C@H](C(=O)N[C@H](C(=O)N[C@H](C(=O)N1CCC[C@H]1C(=O)N[C@@H](C)C(=O)N[C@@H](CC(=O)O)C(=O)N[C@@H](CC(C)C)C(=O)N[C@@H](Cc1c[nH]c2ccccc12)C(=O)N[C@@H](CC(=O)O)C(=O)N[C@@H](Cc1c[nH]c2ccccc12)C(=O)N[C@H](C(=O)N[C@@H](CC(N)=O)C(=O)N[C@@H](CCC(=O)O)C(N)=O)[C@@H](C)CC)[C@@H](C)CC)[C@@H](C)O)C(C)C` [SEQ ID NO: 12, IHVTIPADLWDWINE] (Ac-IHVTIPADLWDWINE-NH2) are < 200 nM, 3.66, 1.31, -5.24 and ≥ 0.01 mM.
Consider `CC[C@H](C)[C@H](NC(C)=O)C(=O)N[C@@H](Cc1c[nH]cn1)C(=O)N[C@H](C(=O)N[C@H](C(=O)N[C@H](C(=O)N1CCC[C@H]1C(=O)N[C@@H](C)C(=O)N[C@@H](CC(=O)O)C(=O)N[C@@H](CC(C)C)C(=O)N[C@@H](Cc1ccc(O)cc1)C(=O)N[C@@H](CCC(=O)O)C(=O)N[C@@H](Cc1c[nH]c2ccccc12)C(=O)N[C@H](C(=O)N[C@@H](CC(N)=O)C(=O)N[C@@H](CCCCN)C(N)=O)[C@@H](C)CC)[C@@H](C)CC)[C@@H](C)O)C(C)C` [SEQ ID NO: 13] (Ac-IHVTIPADLYEWINK-NH2), for which, in data set [2], the logP is −0.49 and the “IP (isoelectric point)” value is recorded as 6.06. Also, the “Log D (7.4)” value in data set [2] (pH 7.4) turned out to be 1.15. For the same compound, the solubility in data set [3] is recorded as >10 mM.
In the case of `CC[C@H](C)[C@H](NC(=O)[C@H](Cc1c[nH]c2ccccc12)NC(=O)[C@H](CCC(=O)O)NC(=O)[C@H](Cc1ccc(O)cc1)NC(=O)[C@H](CC(C)C)NC(=O)[C@H](CC(=O)O)NC(=O)[C@H](C)NC(=O)[C@@H]1CCCN1C(=O)[C@@H](NC(=O)[C@@H](NC(=O)[C@@H](NC(=O)[C@H](CCSC)NC(=O)[C@@H](NC(=O)CNC(=O)[C@H](C)NC(=O)CNC(=O)[C@@H]1CCCN1C(=O)[C@@H](NC(=O)CNC(=O)[C@H](C)NC(=O)CNC(=O)[C@@H]1CCCN1C(=O)[C@@H](NC(C)=O)C(C)C)C(C)C)C(C)C)C(C)C)[C@@H](C)O)[C@@H](C)CC)C(=O)N[C@@H](CCC(=O)O)C(=O)N[C@@H](CCC(=O)O)C(N)=O` [SEQ ID NO: 38], the “IP (isoelectric point)” value in data set [2] turned out to be 5.14. Moreover, in data set [2] (setting [4]), the logP is -5.88. The logD in data set [2] (setting [5]) is -3.46. Besides, in data set [3], the solubility was > 10 mM.
